Like-named read-outs stand apart in the source and are kept apart here. Blank lines part the entries; values can stand above or below the molecule they belong to.
Legend:
EP2 receptor = EP2 receptor (Homo sapiens, UniProt P43116); test: Prostanoid receptor antagonism (FLIPR), EP2; type: cell-based
EP4 receptor = EP4 receptor (Homo sapiens, UniProt P35408); test: Prostanoid receptor antagonism (FLIPR), EP4; type: cell-based
IP receptor = IP receptor (Homo sapiens, UniProt P43119); test: Prostanoid receptor antagonism (FLIPR), IP; type: cell-based
Sequence of IP receptor (P43119 whole entry): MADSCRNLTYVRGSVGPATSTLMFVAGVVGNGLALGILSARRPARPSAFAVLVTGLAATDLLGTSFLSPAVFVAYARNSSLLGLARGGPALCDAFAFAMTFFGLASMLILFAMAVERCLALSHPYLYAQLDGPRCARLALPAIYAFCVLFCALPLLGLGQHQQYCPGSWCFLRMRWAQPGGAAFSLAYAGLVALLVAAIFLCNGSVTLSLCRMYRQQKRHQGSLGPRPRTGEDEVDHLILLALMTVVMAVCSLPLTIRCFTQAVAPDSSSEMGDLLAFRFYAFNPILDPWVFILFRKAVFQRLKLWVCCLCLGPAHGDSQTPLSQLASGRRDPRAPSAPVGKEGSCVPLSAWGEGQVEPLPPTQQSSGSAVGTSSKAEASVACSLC

FP receptor = FP receptor (Homo sapiens, UniProt P43088); test: Prostanoid receptor antagonism (FLIPR), FP; type: cell-based
Sequence of FP receptor (P43088 whole entry): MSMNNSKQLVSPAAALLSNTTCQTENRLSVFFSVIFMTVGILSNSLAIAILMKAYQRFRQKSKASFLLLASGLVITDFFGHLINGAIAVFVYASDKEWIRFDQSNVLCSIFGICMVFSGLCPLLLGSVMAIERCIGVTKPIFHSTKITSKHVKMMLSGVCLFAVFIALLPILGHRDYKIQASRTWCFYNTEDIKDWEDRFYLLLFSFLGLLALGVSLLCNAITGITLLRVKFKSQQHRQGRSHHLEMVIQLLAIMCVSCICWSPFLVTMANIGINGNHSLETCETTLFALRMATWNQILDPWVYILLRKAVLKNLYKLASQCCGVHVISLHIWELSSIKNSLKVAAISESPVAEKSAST

EP1 receptor = molecular target: T1, EP1 receptor (Homo sapiens, UniProt P34995); test: Prostanoid receptor antagonism (FLIPR), EP1; type: cell-based
T1 sequence (P34995 1-402): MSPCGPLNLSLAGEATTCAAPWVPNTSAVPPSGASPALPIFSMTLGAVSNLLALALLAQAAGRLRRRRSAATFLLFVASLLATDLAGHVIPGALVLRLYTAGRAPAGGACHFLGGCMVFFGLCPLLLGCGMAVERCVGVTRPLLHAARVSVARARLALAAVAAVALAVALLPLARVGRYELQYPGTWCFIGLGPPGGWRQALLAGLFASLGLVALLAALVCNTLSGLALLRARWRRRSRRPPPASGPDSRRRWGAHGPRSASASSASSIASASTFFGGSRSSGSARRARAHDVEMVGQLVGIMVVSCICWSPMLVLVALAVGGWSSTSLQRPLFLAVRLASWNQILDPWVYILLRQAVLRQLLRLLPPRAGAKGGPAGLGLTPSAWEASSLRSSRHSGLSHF

FAAH Rat brain = molecular target: T2, FAAH Rat brain (Rattus norvegicus, UniProt P97612); test: FAAH inhibitory activity, rat brain membranes, [14C]-AEA hydrolysis; type: biochemical
T2 construct: from tissue; host or cells: rat brain membranes
T2 sequence (P97612 1-579): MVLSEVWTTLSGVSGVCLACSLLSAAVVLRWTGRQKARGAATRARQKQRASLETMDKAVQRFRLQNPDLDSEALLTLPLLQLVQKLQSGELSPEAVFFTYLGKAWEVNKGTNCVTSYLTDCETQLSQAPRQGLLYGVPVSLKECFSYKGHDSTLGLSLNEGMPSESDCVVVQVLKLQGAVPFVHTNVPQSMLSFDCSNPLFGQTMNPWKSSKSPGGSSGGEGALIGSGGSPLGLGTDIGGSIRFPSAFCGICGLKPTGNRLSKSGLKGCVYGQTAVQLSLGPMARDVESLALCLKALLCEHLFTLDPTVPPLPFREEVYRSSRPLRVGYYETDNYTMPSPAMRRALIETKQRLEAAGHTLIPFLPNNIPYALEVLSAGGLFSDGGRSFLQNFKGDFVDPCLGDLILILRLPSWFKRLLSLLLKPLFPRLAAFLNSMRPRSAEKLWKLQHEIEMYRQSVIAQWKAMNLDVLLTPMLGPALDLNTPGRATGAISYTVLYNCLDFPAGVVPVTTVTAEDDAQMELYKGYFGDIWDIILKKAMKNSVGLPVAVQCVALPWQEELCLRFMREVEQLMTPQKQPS
Protocol: The compounds of Examples 12, and 19 are tested for FAAH inhibitory activity as follows:
Method 1: Membranes obtained from rat brain are incubated with 2 mM [^14C]-AEA, 30 min at 37° C. at pH values ranging from 9.00 to 10.00 in presence and absence of tested compounds in a final volume of […]. Incubation is stopped by extraction with CHCl3/MeOH (1:1) and the aqueous phases containing [^14C]-Ethanolamine produced by [^14C]-AEA hydrolysis are measured.

EP3 receptor = molecular target: T3, EP3 receptor (Homo sapiens, UniProt P43115); test: Prostanoid receptor antagonism (FLIPR), EP3; type: cell-based
T3 sequence (P43115 1-390): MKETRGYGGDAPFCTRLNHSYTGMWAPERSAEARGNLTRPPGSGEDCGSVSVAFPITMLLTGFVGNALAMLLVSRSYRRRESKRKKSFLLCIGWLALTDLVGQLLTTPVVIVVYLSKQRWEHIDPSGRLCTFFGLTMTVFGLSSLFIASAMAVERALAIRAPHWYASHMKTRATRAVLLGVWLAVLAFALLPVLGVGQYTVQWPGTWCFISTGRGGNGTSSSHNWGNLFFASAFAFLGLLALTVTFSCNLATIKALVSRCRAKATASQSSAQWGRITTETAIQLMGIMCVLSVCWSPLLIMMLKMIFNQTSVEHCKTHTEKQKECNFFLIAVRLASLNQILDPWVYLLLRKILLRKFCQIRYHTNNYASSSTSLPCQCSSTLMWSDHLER

TP receptor = molecular target: T4, TP receptor (Homo sapiens, UniProt P21731); test: Prostanoid receptor antagonism (FLIPR), TP; type: cell-based
T4 sequence (P21731 1-343): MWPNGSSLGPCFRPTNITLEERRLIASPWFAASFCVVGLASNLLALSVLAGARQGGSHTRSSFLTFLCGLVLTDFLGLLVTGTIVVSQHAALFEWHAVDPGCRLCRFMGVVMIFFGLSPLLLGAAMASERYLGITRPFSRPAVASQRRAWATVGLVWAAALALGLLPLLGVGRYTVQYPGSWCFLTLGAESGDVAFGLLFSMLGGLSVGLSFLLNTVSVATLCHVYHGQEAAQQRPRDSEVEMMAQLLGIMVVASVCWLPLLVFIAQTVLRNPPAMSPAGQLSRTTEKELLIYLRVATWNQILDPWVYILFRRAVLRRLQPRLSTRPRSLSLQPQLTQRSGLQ

DP receptor = molecular target: T5, DP receptor (Homo sapiens, UniProt Q13258); test: Prostanoid receptor antagonism (FLIPR), DP; type: cell-based
T5 sequence (Q13258 1-359): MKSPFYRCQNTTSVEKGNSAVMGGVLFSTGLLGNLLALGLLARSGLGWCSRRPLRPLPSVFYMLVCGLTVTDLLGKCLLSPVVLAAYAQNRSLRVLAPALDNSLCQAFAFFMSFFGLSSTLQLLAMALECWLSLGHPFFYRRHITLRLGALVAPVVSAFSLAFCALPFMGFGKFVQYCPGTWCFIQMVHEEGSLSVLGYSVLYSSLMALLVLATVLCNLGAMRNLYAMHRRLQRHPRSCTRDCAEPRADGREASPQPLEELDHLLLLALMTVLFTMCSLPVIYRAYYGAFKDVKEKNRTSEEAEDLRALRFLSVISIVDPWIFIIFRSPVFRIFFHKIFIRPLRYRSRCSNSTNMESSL

[1] = Table 1, rat brain, read-out: FAAH Rat brain IC50
[2] = Table 2, rat brain, read-out: FAAH Rat brain IC50
[3] = Table 3, quantity, enzyme source and unit inferred, read-out: FAAH

Sequence of EP2 receptor (P43116 whole entry): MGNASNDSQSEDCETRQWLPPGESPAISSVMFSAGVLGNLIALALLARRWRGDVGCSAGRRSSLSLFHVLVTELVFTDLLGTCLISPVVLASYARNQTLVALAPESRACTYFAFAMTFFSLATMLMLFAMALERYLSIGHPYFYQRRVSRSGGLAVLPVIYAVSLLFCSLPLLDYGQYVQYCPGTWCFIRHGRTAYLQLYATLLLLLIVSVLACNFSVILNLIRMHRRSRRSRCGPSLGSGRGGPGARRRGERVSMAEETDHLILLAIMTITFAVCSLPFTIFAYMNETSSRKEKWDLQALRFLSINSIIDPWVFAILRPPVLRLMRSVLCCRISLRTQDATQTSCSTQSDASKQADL
Sequence of EP4 receptor (P35408 whole entry): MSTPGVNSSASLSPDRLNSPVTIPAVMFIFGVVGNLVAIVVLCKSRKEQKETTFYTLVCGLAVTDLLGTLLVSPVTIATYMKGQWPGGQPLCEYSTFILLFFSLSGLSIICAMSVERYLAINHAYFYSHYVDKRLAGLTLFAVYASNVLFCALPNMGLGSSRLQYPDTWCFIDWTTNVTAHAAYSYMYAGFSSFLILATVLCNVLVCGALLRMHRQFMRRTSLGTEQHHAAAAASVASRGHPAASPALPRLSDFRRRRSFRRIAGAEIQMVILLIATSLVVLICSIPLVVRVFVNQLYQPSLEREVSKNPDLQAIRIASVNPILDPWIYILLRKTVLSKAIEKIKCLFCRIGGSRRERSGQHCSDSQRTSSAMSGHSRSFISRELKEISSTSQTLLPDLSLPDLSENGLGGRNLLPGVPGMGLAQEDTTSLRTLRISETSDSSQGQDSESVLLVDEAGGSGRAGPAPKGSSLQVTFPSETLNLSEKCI

Structure (SMILES): O=C(CCc1ccc(F)cc1CN1CCC[C@H]1c1nc(C(=O)NCCCCC2CCCCC2)co1)NS(=O)(=O)C(F)(F)F [Example 12a]
Kb (EP2 receptor; Table 1): 6400 nM
Kb (EP4 receptor; Table 1): 40 nM
Kb (IP receptor; Table 1): 550 nM
Kb (FP receptor; Table 1): 350 nM
Kb (EP1 receptor; Table 1): 50 nM
IC50 (FAAH Rat brain; [1]): 1000 nM
Kb (EP3 receptor; Table 1): 80 nM
Kb (TP receptor; Table 1): < 1 nM
Kb (DP receptor; Table 1): < 1 nM

Structure (SMILES): O=C(CCc1cc2c(cc1CN1CCC[C@H]1c1nc(C(=O)NCCCCC3CCCCC3)co1)OCO2)NS(=O)(=O)C(F)(F)F [Example 12d]
Kb (EP2 receptor; Table 1): 3900 nM
Kb (EP4 receptor; Table 1): 7 nM
Kb (IP receptor; Table 1): 1000 nM
Kb (FP receptor; Table 1): 360 nM
Kb (EP1 receptor; Table 1): 60 nM
IC50 (FAAH Rat brain; [1]): 740 nM
Kb (EP3 receptor; Table 1): 150 nM
Kb (TP receptor; Table 1): 0.3 nM
Kb (DP receptor; Table 1): 3 nM

Structure (SMILES): CCCCCCCCNC(=O)c1coc([C@@H]2CCCN2Cc2cc(F)ccc2CCC(=O)NS(=O)(=O)C(F)(F)F)n1 [Example 12e, 2-{1-[5-fluoro-2-(3-oxo-3-{[(trifluoromethyl)sulfonyl]amino}propyl)benzyl]pyrrolidin-2-yl}-N-octyl-1,3-oxazole-4-carboxamide]
Kb (EP2 receptor; Table 1): 2500 nM
Kb (EP4 receptor; Table 1): 20 nM
Kb (IP receptor; Table 1): 290 nM
Kb (FP receptor; Table 1): 270 nM
Kb (EP1 receptor; Table 1): 20 nM
IC50 (FAAH Rat brain): 2100 nM
Kb (EP3 receptor; Table 1): 110 nM
Kb (TP receptor; Table 1): < 1 nM
Kb (DP receptor; Table 1): 20 nM

Structure (SMILES): CCCCCCCCNC(=O)c1coc([C@@H]2CCCN2Cc2cc(OC)ccc2CCC(=O)NS(=O)(=O)C(F)(F)F)n1 [Example 12f, 2-{1-(5-methoxy-2-(3-oxo-3-{[(trifluoromethyl)sulfonyl]amino]propyl)benzyl]pyrrolidin-2-yl}-N-octyl-1,3-oxazole-4-carboxamide]
Kb (EP2 receptor; Table 1): 1100 nM
Kb (EP4 receptor; Table 1): 20 nM
Kb (IP receptor; Table 1): 400 nM
Kb (FP receptor; Table 1): 380 nM
Kb (EP1 receptor; Table 1): 60 nM
IC50 (FAAH Rat brain; [1]): 500 nM
Kb (EP3 receptor; Table 1): 140 nM
Kb (TP receptor; Table 1): < 1 nM
Kb (DP receptor; Table 1): < 1 nM

Structure (SMILES): COc1ccc(CCC(=O)O)c(C(=O)N2CCC[C@H]2c2nc(C(=O)NCCCCC3CCCCC3)co2)c1 [Example 19]
IC50 (FAAH Rat brain; [3]): 180 nM

Further lines, results first:

Kb (EP2 receptor; Table 1): 5500 nM
Kb (EP4 receptor; Table 1): 40 nM
Kb (IP receptor; Table 1): 9500 nM
Kb (FP receptor; Table 1): 460 nM
Kb (EP1 receptor; Table 1): 70 nM
IC50 (FAAH Rat brain; [1]): 4500 nM
Kb (EP3 receptor; Table 1): 100 nM
Kb (TP receptor; Table 1): < 1 nM
Kb (DP receptor; Table 1): < 1 nM
Structure (SMILES): O=C(CCc1ccc(Cl)cc1CN1CCC[C@H]1c1nc(C(=O)NCCCCC2CCCCC2)co1)NS(=O)(=O)C(F)(F)F [Example 12b, (S)—N-(4-cyclohexylbutyl)-2-(1-(5-chloro-2-(3-oxo-3-(trifluoromethylsulfonamido)propyl)benzyl)pyrrolidin-2-yl)oxazole-4-carboxamide]

Kb (EP2 receptor; Table 1): 830 nM
Kb (EP4 receptor; Table 1): 10 nM
Kb (IP receptor; Table 1): 860 nM
Kb (FP receptor; Table 1): 270 nM
Kb (EP1 receptor; Table 1): 20 nM
IC50 (FAAH Rat brain; [1]): 200 nM
Kb (EP3 receptor; Table 1): 47 nM
Kb (TP receptor; Table 1): < 1 nM
Kb (DP receptor; Table 1): 17 nM
Structure (SMILES): COc1ccc(CCC(=O)NS(=O)(=O)C(F)(F)F)c(CN2CCC[C@H]2c2nc(C(=O)NCCCCC3CCCCC3)co2)c1 [Example 12c, (S)—N-(4-cyclohexylbutyl)-2-(1-(5-methoxy-2-(3-oxo-3-(trifluoromethylsulfonamido)propyl)benzyl)pyrrolidin-2-yl)oxazole-4-carboxamide]

Kb (EP2 receptor; Table 2, NA = inactive): 7800 nM
Kb (EP4 receptor; Table 2): 150 nM
Kb (FP receptor; Table 2): 2000 nM
Kb (EP1 receptor; Table 2): 830 nM
IC50 (FAAH Rat brain; [2]): 100 nM
Kb (EP3 receptor; Table 2): 50 nM
Kb (TP receptor; Table 2): 8 nM
Kb (DP receptor; Table 2): 8 nM
Structure (SMILES): COc1ccc(CCC(=O)NS(=O)(=O)CCCF)c(CN2CCC[C@H]2c2nc(C(=O)NCCCCC3CCCCC3)co2)c1 [Example 12h, 2(S)—N-(4-cyclohexylbutyl)-2-(1-(5-methoxy-2-(3-oxo-3-(fluoropropylsulfonamido)propyl)benzyl)pyrrolidin-2-yl)oxazole-4-carboxamide]

Kb (EP4 receptor; Table 2): 210 nM
Kb (FP receptor; Table 2): 1500 nM
Kb (EP1 receptor; Table 2): 1900 nM
IC50 (FAAH Rat brain; [2]): 150 nM
Kb (EP3 receptor; Table 2): 480 nM
Kb (TP receptor; Table 2): 1 nM
Kb (DP receptor; Table 2): 44 nM
Structure (SMILES): COc1ccc(CCC(=O)NS(=O)(=O)C(C)C)c(CN2CCC[C@H]2c2nc(C(=O)NCCCCC3CCCCC3)co2)c1 [Example 12i, (S)—N-(4-cyclohexylbutyl)-2-(1-(5-methoxy-2-(3-oxo-3-(isopropylsulfonamido)propyl)benzyl)pyrrolidin-2-yl)oxazole-4-carboxamide]

Kb (EP2 receptor; Table 2, NA = inactive): 900 nM
Kb (EP4 receptor; Table 2): 360 nM
Kb (FP receptor; Table 2): 2300 nM
Kb (EP1 receptor; Table 2): 240 nM
IC50 (FAAH Rat brain; [2]): 210 nM
Kb (EP3 receptor; Table 2): 10 nM
Kb (TP receptor; Table 2): 4 nM
Kb (DP receptor; Table 2): 28 nM
Structure (SMILES): COc1ccc(CCC(=O)NS(=O)(=O)c2ccc(Cl)s2)c(CN2CCC[C@H]2c2nc(C(=O)NCCCCC3CCCCC3)co2)c1 [Example 12j, (S)—N-(4-cyclohexylbutyl)-2-(1-(5-methoxy-2-(3-oxo-3-(5-chlorothienylsulfonamido)propyl)benzyl)pyrrolidin-2-yl)oxazole-4-carboxamide]

Kb (EP2 receptor; Table 2, NA = inactive): 4000 nM
Kb (EP4 receptor; Table 2): 400 nM
Kb (IP receptor; Table 2, NA = inactive): 2900 nM
Kb (FP receptor; Table 2): 1400 nM
Kb (EP1 receptor; Table 2): 3100 nM
IC50 (FAAH Rat brain; [2]): 200 nM
Kb (EP3 receptor; Table 2): 5600 nM
Kb (TP receptor; Table 2): 13 nM
Kb (DP receptor; Table 2): 80 nM
Structure (SMILES): COc1ccc(CCC(=O)NS(=O)(=O)N(C)C)c(CN2CCC[C@H]2c2nc(C(=O)NCCCCC3CCCCC3)co2)c1 [Example 12k]

IC50 (FAAH Rat brain; [3]): 20 nM
Structure (SMILES): CCS(=O)(=O)NC(=O)CCc1ccc(OC)cc1C(=O)N1CCC[C@H]1c1nc(C(=O)NCCCCC2CCCCC2)co1 [Example 19a, 2-{(S)-1-[2-(3-Ethanesulfonylamino-3-oxo-propyl)-5-methoxy-benzoyl]-pyrrolidin-2-yl}-oxazole-4-carboxylic acid (4-cyclohexyl-butyl)-amide]

IC50 (FAAH Rat brain; [3]): 30 nM
Structure (SMILES): COc1ccc(CCC(=O)NS(C)(=O)=O)c(C(=O)N2CCC[C@H]2c2nc(C(=O)NCCCCC3CCCCC3)co2)c1 [Example 19b, 2-{(S)-1-[2-(3-Methanesulfonylamino-3-oxo-propyl)-5-methoxy-benzoyl]-pyrrolidin-2-yl}-oxazole-4-carboxylic acid (4-cyclohexyl-butyl)-amide]
